Source: US8541670B2, “Compositions and methods for inhibiting tumor cell growth” (priority 2007, dated 2013)
Where no end group is shown, it is not given here.

Assays:
AKT1 = target: T1, AKT1 (Homo sapiens, UniProt P31749); experiment: AKT kinase assay with Ser-9 GSK-3 GST fusion protein substrate (western blot, phospho-specific antibody); format: biochemical; conditions: wild-type active AKT
T1 construct: purchased Upstate Biotechnology
Experimental: Since the observed effect of H-89 and forskolin on AKT activity in cultured cells could be interpreted as the result of the regulatory interference of other signaling pathways, in vitro analysis was carried using purified, active forms of AKT and PKAc to examine the direct result of this interaction on the kinase catalytic activity. […] This decrease in the catalytic activity of AKT by PKAc was inhibited when the PKA inhibitor was added to the reaction mixture. […] The decrease in the catalytic activity of AKT by PKAc was also observed with two mutants and active forms of AKT1, one with a deletion in the PH domain and the other one with a Ser473Asp mutation. As with wild-type AKT, the inhibitory effect of PKAc on the mutants was reversed in the presence of the PKA inhibitor peptide. […]
For non-radioactive kinase assays, typically 25 ng of active AKT1 or PKAc (Upstate Biotechnology) was used in a kinase assay reaction buffer (20 mM MOPS, pH 7.2, 25 mM […]-glycerophosphate, 5 mM EGTA, 1 mM Na3VO4, 1 mM dithiothreitol, 75 mM MgCl2, and 0.5 mM ATP) in the presence of either 1 μL of Ser-9 GSK-3 GST fusion protein (Cell Signaling), or recombinant DARPP-32 (10 μg). […] A 5 μL aliquot of the reaction was transferred to phosphocellulose paper, washed for 30 minutes with dH2O, and CPM of samples read in scintillation counter.

SGK = target: T2, SGK (Homo sapiens, UniProt O00141); experiment: In vitro kinase assay SGK; format: biochemical; conditions: ten times higher concentration than 0.1 μM
T2 construct: endogenous in cells
T2 sequence (O00141 1-431): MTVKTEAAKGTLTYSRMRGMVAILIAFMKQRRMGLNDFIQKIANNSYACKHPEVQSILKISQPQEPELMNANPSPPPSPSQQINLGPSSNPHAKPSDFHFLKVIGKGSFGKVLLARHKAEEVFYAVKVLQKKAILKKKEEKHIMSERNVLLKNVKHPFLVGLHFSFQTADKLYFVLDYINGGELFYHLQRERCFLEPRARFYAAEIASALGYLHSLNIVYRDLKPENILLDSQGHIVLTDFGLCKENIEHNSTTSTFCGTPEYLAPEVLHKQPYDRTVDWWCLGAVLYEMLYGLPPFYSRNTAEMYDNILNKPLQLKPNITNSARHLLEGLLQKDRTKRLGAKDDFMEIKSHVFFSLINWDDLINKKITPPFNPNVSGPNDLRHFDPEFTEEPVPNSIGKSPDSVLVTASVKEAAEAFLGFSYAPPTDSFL
Experimental: (§1) As a specific substrate, the phosphorylation level of GSK-3[…] at Ser-9 was also evaluated. […] The decrease was specific to the AKT phosphorylation site on GSK-3[…] at Ser-9, since a change in the phosphorylation level of GSK-3[…] at Tyr-216 or GSK-3[…] at Tyr-279 was not observed. Moreover, the in vivo reduction of the phosphorylation of AKT substrates was more obvious at the injection site, since a significant change in the phosphorylation of AKT substrates in the frontal cortex or cerebellum between the two hemispheres was not observed. […] To test the specificity/selectivity of ZaTa as the inhibitor of AKT1 versus the other major kinases, a series of in vitro kinase assays was performed at IC50 for AKT1 and at ten times higher concentrations. A panel of the following 32 kinases was first tested in vitro using the active form of each kinase and a specific substrate: AKT2, AKT3, PKA, PKC[…], PKC, PI3K[…], PI3K[…], PI3K, SGK, PAK2, PAK3, SAPK2/p38, Abl, CaMKII, CDK1/cyclinB, CDK5/p35, CK1, CK2, CSK, GSK3[…], GSK3[…], JNK1[…]1, MAPK1, p70S6K, PDGFR[…], PDGFR[…], PDK1, PKG1[…], TrkB, JAK2, JAK3, and Syk. […] However, at ten times higher concentration, ZaTa inhibited AKT2 (63%), PI3K[…] (72%), p70S6K (64%), SGK (73%), PAK3 (83%), JAK3 (79%), TrkB (84%), and Abl (42%). […]

PAK3 = PAK3 (Homo sapiens, UniProt O75914); experiment: In vitro kinase assay PAK3; format: biochemical; conditions: ten times higher concentration than 0.1 μM
PAK3, sequence (O75914 whole entry, species assumed): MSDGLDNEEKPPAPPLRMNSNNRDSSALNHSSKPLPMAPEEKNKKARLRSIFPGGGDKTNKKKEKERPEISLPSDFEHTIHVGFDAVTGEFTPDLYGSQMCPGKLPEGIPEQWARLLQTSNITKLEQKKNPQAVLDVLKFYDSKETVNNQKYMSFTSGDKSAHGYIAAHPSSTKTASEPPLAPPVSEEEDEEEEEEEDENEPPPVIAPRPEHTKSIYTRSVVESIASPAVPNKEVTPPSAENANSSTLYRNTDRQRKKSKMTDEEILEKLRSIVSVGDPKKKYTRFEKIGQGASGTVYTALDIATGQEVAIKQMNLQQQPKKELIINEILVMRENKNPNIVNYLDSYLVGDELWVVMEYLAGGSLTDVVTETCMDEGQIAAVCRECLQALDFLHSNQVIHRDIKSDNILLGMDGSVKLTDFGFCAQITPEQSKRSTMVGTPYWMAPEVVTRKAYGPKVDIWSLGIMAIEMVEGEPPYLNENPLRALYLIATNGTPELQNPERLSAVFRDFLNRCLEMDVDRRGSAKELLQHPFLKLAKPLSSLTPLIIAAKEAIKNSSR
Experimental: as §1

N2a cells = experiment: Trypan blue staining, live and dead cell count; format: cell-based
Description: Therefore, in addition to capturing live images, cells were stained with trypan blue at different time intervals following treatment with ZaTa and counted by a light microscope using a hemocytometer.

T1 sequence (P31749 whole entry, the tested form may be a part): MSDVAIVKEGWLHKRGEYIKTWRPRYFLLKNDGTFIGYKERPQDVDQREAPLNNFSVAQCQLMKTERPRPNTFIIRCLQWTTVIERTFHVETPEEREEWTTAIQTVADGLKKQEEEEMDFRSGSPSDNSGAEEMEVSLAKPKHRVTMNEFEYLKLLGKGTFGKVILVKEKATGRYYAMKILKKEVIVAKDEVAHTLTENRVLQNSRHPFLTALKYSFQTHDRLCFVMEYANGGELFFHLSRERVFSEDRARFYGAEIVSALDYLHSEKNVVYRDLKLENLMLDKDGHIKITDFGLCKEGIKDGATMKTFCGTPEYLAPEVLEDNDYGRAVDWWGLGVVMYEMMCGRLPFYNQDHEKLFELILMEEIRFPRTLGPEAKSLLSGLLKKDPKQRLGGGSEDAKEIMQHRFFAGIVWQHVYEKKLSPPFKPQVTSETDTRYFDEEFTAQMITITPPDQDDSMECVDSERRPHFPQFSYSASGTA

AKRVKGRTWTLCGTPEY [ZaTa]
AKT catalytic activity, phosphorylation level of Ser-9 GSK-3 GST substrate (AKT1): significantly reduced
inhibition of SGK (SGK): 73%
inhibition of PAK3 (PAK3): 83%
increase in the number of dead cells (N2a cells; counted at time points from 12 to 72 hours): not seen
number of live cells, trypan blue (N2a cells; different time intervals): dose-dependent decrease
